The record followed here is article PMC10619479, “Multicomponent synthesis of pyrido[2,3-b]pyrazine derivatives: electrochemical DNA sensing, nonlinear optical properties and biological activity” (RSC Advances, 2023).

Each structure is given as a SMILES string.

Assay [1] concerns the target T1, Jack Bean Urease (Canavalia ensiformis, UniProt P07374). Description: biochemical. On the set-up: Jack bean urease inhibition, ammonia release by indophenol method, absorbance at 625 nm. On the procedure:
The enzyme responsible for catalyzing urea, known as urease, helps for the conversion of urea into carbon dioxide (CO2) through hydrolysis. To monitor the production of ammonia (NH3) and inhibit urease activity, we employed the indophenol method.[42] In the reaction mixture, consisting of Jack Bean Urease (200 μL), a buffer with a pH of 8.25 (400 μL, composed of 0.5 mM EDTA, 0.02 M K2HPO4, 0.02 M LiCl, and 120 mM urea), and test compounds (100 μL), incubation was carried out at 25 °C for approximately 30 minutes. […] In the realm of scientific investigation, thiourea functions as a benchmark inhibitor. The determination of the IC50 values entails subjecting both standard and synthesized compounds to varying concentrations under identical experimental conditions.[43,44] […] Thiourea was used as a reference point to assess the effects of substituents about the pyrido[2,3-b]pyrazine based scaffold on their urease inhibitory potential.

Assay [2] concerns the target T1, Jack Bean Urease. Nature of the assay: indophenol urease inhibition assay (ammonia release, […] nm). The format is biochemical. The source says:
The determination of the IC50 values entails subjecting both standard and synthesized compounds

T1 sequence (P07374 whole entry): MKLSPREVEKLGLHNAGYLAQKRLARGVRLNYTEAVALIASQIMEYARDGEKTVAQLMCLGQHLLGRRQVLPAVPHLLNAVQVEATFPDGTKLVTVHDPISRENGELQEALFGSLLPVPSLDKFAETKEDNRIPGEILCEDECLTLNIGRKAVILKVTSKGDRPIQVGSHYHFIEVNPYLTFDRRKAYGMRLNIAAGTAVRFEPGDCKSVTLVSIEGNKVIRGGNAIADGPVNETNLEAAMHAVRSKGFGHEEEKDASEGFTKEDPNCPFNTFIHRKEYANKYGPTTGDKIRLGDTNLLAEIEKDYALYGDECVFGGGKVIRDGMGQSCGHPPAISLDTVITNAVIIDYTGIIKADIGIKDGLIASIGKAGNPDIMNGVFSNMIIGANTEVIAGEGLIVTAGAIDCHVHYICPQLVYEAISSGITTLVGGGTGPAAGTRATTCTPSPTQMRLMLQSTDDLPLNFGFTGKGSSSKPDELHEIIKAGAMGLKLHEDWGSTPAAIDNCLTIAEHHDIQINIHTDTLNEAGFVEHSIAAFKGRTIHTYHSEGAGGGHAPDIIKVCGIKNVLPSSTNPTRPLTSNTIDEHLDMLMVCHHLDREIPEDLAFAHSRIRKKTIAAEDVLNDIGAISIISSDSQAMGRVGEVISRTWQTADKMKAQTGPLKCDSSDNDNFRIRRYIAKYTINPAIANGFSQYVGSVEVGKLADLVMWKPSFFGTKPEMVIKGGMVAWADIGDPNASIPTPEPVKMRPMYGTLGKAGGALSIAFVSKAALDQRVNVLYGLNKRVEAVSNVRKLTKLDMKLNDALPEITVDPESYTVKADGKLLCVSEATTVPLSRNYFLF

By IC50 is commonly meant the point on the concentration scale where inhibition reaches its midpoint. High values mean a need for much substance, low ones inhibition by little substance. In the case of `NC(N)=S` [thiourea], in assay [1], the 50% inhibitory concentration (IC50) is 1.94 ± 0.36 µM.
Regarding `O=Cc1ccc(C2C3=C(Nc4nccnc42)c2ccccc2C3=O)cc1` (centres unmarked) [compound 4], in assay [1], half-maximal inhibition (IC50) was put at 6.79 ± 0.92 µM.
In assay [2], `O=C1C2=C(Nc3nccnc3C2c2ccc(Cl)cc2)c2ccccc21` (centres unmarked) [compound 5] registered an IC50 of 4.12 ± 1.18 µM.
On to `COc1ccc(C2C3=C(Nc4nccnc42)c2ccccc2C3=O)cc1` (centres unmarked) [compound 7], for which half-maximal inhibition in assay [1] (IC50) required 11.9 ± 0.34 µM.
With `O=C1C2=C(Nc3nccnc3C2c2ccc([N+](=O)[O-])cc2)c2ccccc21` (centres unmarked) [compound 6], the IC50 in assay [1] was found to be 4.77 ± 0.92 µM.
